Laboratory results from patent US20170095512A1, “METHODS OF INDUCING MYELINATION AND MATURATION OF OLIGODENDROCYTES” (KADIMASTEM LTD., priority 2014, published 2017).

System: glial progenitor cells derived from human ES cells (Olig2 positive cells)
Assay: hOPC differentiation assay, Olig2 positive cells (immunostaining, high content screening)
Format: cell-based
Conditions: PDGF 20 ng/ml added during LDN-193189 dose-response assay, 21 days
Method: In order to initiate differentiation 20,000 GPCs were seeded in each well of Matrigel coated plates of 96 wells, or on PolyD-Lysine/laminin (PDL/lam)-coated 96 well plates. Cells were grown in GM media for two to three days. Then GM was replaced by differentiation medium without growth factors, (DMEM/F12, 1% B27, 0.5% N2, Vitamin C (Sigma, 50 ug/ml). Differentiation medium was supplemented with the following tested compounds: […] All media were replaced every other day. The oligodendrocyte lineage cells were characterized by the expression of a transcription factor olig2. The rabbit polyclonal AB anti olig2 (Millipore cat AB9610) was added to PFA fixed cells. […] The fixed cells were washed three times in blocking solution, olig2 diluted 1/500, in blocking solution, was added for 1 hour. The fixed cells were washed with PBS 3 times and goat anti rabbit Alexa Fluor 568 1/500 in PBS was added for 45 minutes. The fixed cells were washed three times. ArrayScan VTI HCS reader system (Cellomis, Thermo-scientific) was used for scanning at least 20 fields for each tested well under 10× objective in both assays (differentiation and myelination). Cellomics Neural profiling bio-application was used for processing and analyzing the images. For differentiation assay, the following parameters were tested: number and percentage of O4+ cells, number of processes, processes length and number of branching points. For myelination assay, the same morphological parameters were tested and in addition: areas of myelinated axons in pixels (MBP&NF overlap area) and Number of myelinated regions (MBP&NF overlap count) were also analyzed. Modifications in the Neuro-profiling bio-application were conducted for this specific purpose. T-test analysis was used to compare between treatments. The 4-parameter Hill-Slope curve fittings were generated by GraphPad Prism software using least squares fitting method and EC50 values were calculated. […] The cells at passage five were cultured for three days with GM on 96 well plates and after fixation, cells were reacted with anti-olig2 Ab, and olig2 positive cells and nuclei were scanned in the Thermo Scientific™ ArrayScan™ XTI High Content Analysis (HCA) Reader and counted with the neural profiling program. On the other hand the cells surface antigens O4 and PDGFRa were detected on dissociated cells after fixation and reaction with O4 Ab conjugated to APC, anti PDGFRa PE, as well as A2B5 PE all obtained from BD. Flow cytometry was conducted in BD FACS Canto II. […] Time points used for analysis are 21, 28, 35 and 42 days of differentiation, for each time point 20 fields were analyzed. […] In this experiment, cells at passage 4 were pretreated in differentiation medium with Noggin for 14 days, and split before seeding on 96 well plates.

**Q.** PDGF: human recombinant PDGFAA (R&D) was tested. Which “number of olig2 positive cells on addition of PDGF” value did it give?
**A.** increases the number of olig2 positive cells about two folds
